Measurements from patent US6380226B1, “Salts of an anti-migraine indole derivatives” (Pfizer Inc, priority 1994, dated 2002).
“Also recorded” adds a separate entry of the source. Where a name gives a salt, the structure may show the parent alone. Read-outs that look alike come from different tables or passages of the source. Values belong to the molecule of their own block, whether it stands above or below them.

Tests used:
Assay type in all cases: physicochemical
[1] = Hygroscopicity study: moisture change by weight analysis and Karl Fischer titrimetry; conditions: for colour change of sample accompanying water uptake: hygroscopicity study, 40° C./75% RH
Procedure: (§1) Hygroscopicity/Solid State Stability Studies Samples (ca 10 mg) were sieved (250 μm) and then stored at each of the following conditions of temperature (T) and relative humidity (RH) for up to 4 weeks: 30° C. at II, 75 and 90% RH and 40° C. at II, 75 and 90% RH, the required humidities being achieved using the appropriate saturated salt solution in a dessicator. Measurements of water content changes were conducted by weight analysis using a microbalance and by Karl Fischer titrimetry (KFT), and chemical and physical stability evaluation by high performance liquid chromatography (HPLC) and DSC. KFT was performed using a Mitsubishi moisturemeter and ca 10 mg of each sample.

[2] = Solid state stability study: chemical and physical stability by HPLC and DSC; conditions: for solid state instability (associated with water uptake): hygroscopicity studies
Procedure: as §1, with “DSC. HPLC analyses were” for “DSC. KFT was”, “performed on” for “performed using”, “a LDC isocratic system under the following conditions: column—Novapak C18, 5μm, 15 cm; mobile phase—pH 6.0, 60:40 v/v 0.02M KH2PO4 (0.5% triethylamine): methanol; detection—UV (254 nm); flow rate—1.0 ml/min; injection volume —20 μl; sample 0.1 mg/ml in mobile phase.” for “a Mitsubishi moisturemeter and ca 10 mg of each sample.”

Compression studies = conditions: for behaviour on compression (colour change, melting, punch filming): 5 tonnes for 1 minute, 13 mm punch and die set
Procedure: Samples (200 mg) were compressed using a bench IR press (Graseby Specac Model 15.011) at 5 tonnes for 1 minute using a 13 mm punch and die set, then assessed for colour change and evidence of melting. Further analysis (DSC and HPLC) was conducted after grinding of the compact using a mortar and pestle.

[3] = Polymorphic conversion by DSC
Procedure: Samples (ca 5 mg) of each form were analysed using a Perkin-Elmer 7 Series thermal analyser at a scanning rate of 20° C. per minute. For identification of the respective endotherms, shown in the representative DSC thermograms of FIGS. 3A and 3B, vide supra. DSC was used to determine both the polymorphic conversions of the β-forms of the hydrobromide and hemisulphate salts to their respective α-forms, and also the conversion of the α-form of the hydrochloride salt to its β-form which is believed to be an anhydrate-hydrate transition.

[4] = listed as α-form of the hydrobromide salt
[5] = listed as α-form of the hemisulphate salt
[6] = listed as β-form of the hemisulphate salt

Compound: CN1CCC[C@@H]1Cc1c[nH]c2ccc(CCS(=O)(=O)c3ccccc3)cc12 [α-HBr, 3-(N-Methyl-2(R)-pyrrolidinylmethyl)-5-(2-phenylsulphonylethly)-1H-indole hydrobromide, α-form]
weight over the course of the hygroscopicity study (in words) ([1]; 30 and 40° C., 11, 75 and 90% RH, up to 4 weeks): relatively stable weights | moisture change determined by % weight change ([1]; T/RH 30/11 (30° C., 11% RH), Week 1): −0.45% | moisture change determined by % weight change ([1]; T/RH 30/11, Week 2): −0.51% | moisture change determined by % weight change ([1]; T/RH 30/11, Week 3): +0.20% | moisture change determined by % weight change ([1]; T/RH 30/11, Week 4): +0.09% | moisture change determined by % weight change ([1]; T/RH 30/75, Week 1): +0.08% | moisture change determined by % weight change ([1]; T/RH 30/75, Week 2): +0.01% | moisture change determined by % weight change ([1]; T/RH 30/75, Week 3): +0.17% | moisture change determined by % weight change ([1]; T/RH 30/75, Week 4): +0.25% | moisture change determined by % weight change ([1]; T/RH 30/90, Week 1): +0.53% | moisture change determined by % weight change ([1]; T/RH 30/90, Week 2): +0.46% | moisture change determined by % weight change ([1]; T/RH 30/90, Week 3): +0.50% | moisture change determined by % weight change ([1]; T/RH 30/90, Week 4): +0.49% | moisture change determined by % weight change ([1]; T/RH 40/11, Week 1): −0.48% | moisture change determined by % weight change ([1]; T/RH 40/11, Week 2): +0.58% | moisture change determined by % weight change ([1]; T/RH 40/11, Week 3): −0.51% | moisture change determined by % weight change ([1]; T/RH 40/11, Week 4): −0.49% | moisture change determined by % weight change ([1]; T/RH 40/75, Week 1): +0.06% | moisture change determined by % weight change ([1]; T/RH 40/75, Week 2): +0.23% | moisture change determined by % weight change ([1]; T/RH 40/75, Week 3): 0.00% | moisture change determined by % weight change ([1]; T/RH 40/75, Week 4): +0.11% | moisture change determined by % weight change ([1]; T/RH 40/90, Week 1): +0.87% | moisture change determined by % weight change ([1]; T/RH 40/90, Week 2): +1.27% | moisture change determined by % weight change ([1]; T/RH 40/90, Week 3): +1.16% | moisture change determined by % weight change ([1]; T/RH 40/90, Week 4): +1.23% | hygroscopicity (in words) [1, 4]: lack of hygroscopicity | change in DSC profile ([2]; T=40° C./RH=90% samples): No change | chemical stability by HPLC analysis ([2]; all of the conditions studied (30 and 40° C., 11, 75, 90% RH, up to 4 weeks)): confirmed its stability | behaviour on compression (colour change, melting, punch filming) (Compression studies; [4]): no evidence of a change in sample appearance or punch filming | changes to the thermogram (melting point, enthalpy of fusion) after compression or grinding (Compression studies; DSC after compression or grinding): no changes | polymorphic conversion [3, 4]: No polymorphic transitions

Compound: CN1CCC[C@@H]1Cc1c[nH]c2ccc(CCS(=O)(=O)c3ccccc3)cc12 [α-form of the hydrochloride salt, 3-(N-methyl-2(R)-pyrrolidinylmethyl)-5-(2-phenylsulphonylethyl)-1H-indole]
water uptake (in words) ([1]; T 40° C., RH 75%, seven days (1 week)): a significant amount of water had been taken up; also recorded: picked up a significant amount of moisture | behaviour on compression (colour change, melting, punch filming) (Compression studies): did not melt on compaction | polymorphic conversion [3]: converts to the hydrated β-form; also recorded: transformation of the α-form to the β-form

Compound: CN1CCC[C@@H]1Cc1c[nH]c2ccc(CCS(=O)(=O)c3ccccc3)cc12 [β-form of the hydrobromide salt]
polymorphic conversion [3]: undergoes polymorphic conversion to a higher melting form

The next lines start with results.

moisture change determined by % weight change ([1]; T/RH 40/75, Week 1): +6.0% | moisture change determined by % weight change ([1]; T/RH 40/75, Week 2): +4.85% | moisture change determined by % weight change ([1]; T/RH 40/75, Week 3): +5.46% | moisture change determined by % weight change ([1]; T/RH 40/75, Week 4): +4.04% | colour change of sample accompanying water uptake [1, 5]: no concomitant colour | hygroscopicity (in words) [1, 5]: extremely hygroscopic | solid state instability (associated with water uptake) [2, 5]: does not display solid state instability
Compound: CN1CCC[C@@H]1Cc1c[nH]c2ccc(CCS(=O)(=O)c3ccccc3)cc12 [α-½H2SO4, 3-(N-methyl-2(R)-pyrrolidinylmethyl)-5-(2-phenylsulphonylethyl)-1H-indole]

hygroscopicity (in words) ([1]; T=40° C./RH=75%, weight change and KFT at week 4): non-hygroscopic
Compound: CN1CCC[C@@H]1Cc1c[nH]c2ccc(CCS(=O)(=O)c3ccccc3)cc12 [β-form of the hydrochloride salt, 3-(N-methyl-2(R)-pyrrolidinylmethyl)-5-(2-phenylsulphonylethyl)-1H-indole]
solid state instability (associated with water uptake) [2]: does not display solid state instability; also recorded: no solid state instability being detected | behaviour on compression (colour change, melting, punch filming) (Compression studies): melting and sticking of the disk to the punches were observed; also recorded: melts and causes sticking of the disk to the punches

moisture change determined by % weight change ([1]; T/RH 40/75, Week 1): +1.33% | moisture change determined by % weight change ([1]; T/RH 40/75, Week 2): +3.79% | moisture change determined by % weight change ([1]; T/RH 40/75, Week 3): +3.38% | moisture change determined by % weight change ([1]; T/RH 40/75, Week 4): +1.69% | hygroscopicity (in words) ([1]; relative humidities (RH) higher than 50%): very hygroscopic
Compound: CN1CCC[C@@H]1Cc1c[nH]c2ccc(CCS(=O)(=O)c3ccccc3)cc12 [β-½H2SO4, 3-(N-methyl-2(R)-pyrrolidinylmethyl)-5-(2-phenylsulphonylethyl)-1H-indole]
colour change of sample accompanying water uptake [1, 6]: change in colour of the sample from cream to yellow | behaviour on compression (colour change, melting, punch filming) (Compression studies; [6]): undergoes a colour change on compression and causes punch-filming during tabletting; also recorded: undergoes a colour change on compression and also causes punch filming on compaction | polymorphic conversion [3, 6]: water uptake can cause polymorphic conversion to an alternative form; also recorded: polymorphic conversion to the α-form
